Source: PMC11503492, “Activity-Based DNA-Encoded Library Screening for Selective Inhibitors of Eukaryotic Translation” (ACS Central Science, 2024)

How the values were obtained:
[1] = tested on: PCSK9-FS[1:33]-GFP translation; assay: WG IVTT microplate activity assay, PCSK9-FS[1:33]-GFP frameshift counter template; type: biochemical, wheat germ; details: for IC50: PCSK9-FS[1:33]-GFP template, triplicate, undetectable IC50 marked >300; for activity on PCSK9-FS[1:33]-GFP translation (in words): frameshift control
Description: (§1) A commercially available wheat germ lysate (WG) IVTT system was employed to assay translation inhibition. Translation activity was detected via a GFP reporter, and the assay was miniaturized to picoliter-scale microfluidic droplets (Figure 1A,B). […] PCSK9 and RPL27 were truncated to the first 33 and 32 amino acids, respectively (PCSK9[1:33] and RPL27[1:32]). The sequences contain distinct PF846 stall sites and were both fused to a GFP reporter. The GFP reporter and a frameshift mutant of PCSK9[1:33] (PCSK9-FS[1:33]), which mutates the nascent chain sequence while maintaining a nearly identical mRNA sequence, were included as negative controls.[13] […] Sequence sensitivity was further confirmed by an N-terminal deletion series of PCSK9[1:33]-GFP; deletion of N-terminal residues increasingly ablated PCSK9[1:33]-GFP translation sensitivity to PF846 (Figure 1D). The WG IVTT assay was miniaturized using a previously described microfluidic circuit modified for longer incubation times (Figure S1)[27] using PF846 as a positive control compound, and assay statistical quality was calculated (Z′=0.7) (Figure 1E). To confirm detection of translation inhibition from library beads, hygromycin B, a nonselective aminoglycoside translation inhibitor, was coupled to beads displaying a photocleavable linker (PC-HygB). UV irradiation releases hygromycin from the bead, allowing it to interact with the WG IVTT assay in the droplet. PC-HygB bead photocleavage supernatant inhibited PCSK9[1:33]-GFP translation both in a microplate assay and in microfluidic droplets (Figure 1F,G, S2). Assay statistical quality using PC-HygB positive control beads was similarly calculated (Z′ = 0.75, Figure 1H). […]
(§2) 436 Microplate IVTT Assays
(§3) 437 Wheat germ lysate IVTT plate assays were prepared as 5 µL reactions. Wheat germ lysate
(§4) 438 (3 µL) was added to test compound or vehicle control (1 µL) in a 384-well black microplate
(§5) 439 and the reaction was incubated (10 min, RT). Template (1 µL) was added and reaction
(§6) 440 progress was immediately monitored (λex = 480 nm, λem = 530 nm, 27 °C, 2 h). Rela-
(§7) 441 tive activity was calculated using the slope of fluorescence increase over time (at 15–30
(§8) 442 min post reaction initiation) for compound samples relative to that of the DMSO vehicle
443 control. All microplate experiments contained 25 ng/µL plasmid, except for assays with
445 respectively. HeLa lysate IVTT plate assays were prepared as 5.5 µL reactions. […]

[2] = tested on: PCSK9[1:33]-GFP translation; assay: Wheat germ lysate (WG) IVTT microplate activity assay, PCSK9[1:33]-GFP template; type: biochemical; details: WG IVTT; for IC50: PCSK9[1:33]-GFP template, triplicate, ± standard deviation of the mean
Description: as §1, §2, §3, §4, §5, §6, §7, §8
443 control. […]

[3] = tested on: PCSK9[1:33]-GFP translation; assay: Microfluidic activity-based DEL screen in WG IVTT droplets, PCSK9[1:33]-GFP, hit k class by sequencing; type: biochemical, wheat germ; details: number of times hit structure observed on distinct beads, summed across PCSK9[1:33]-GFP screens; *** p < 0.001, NS not significant
Description: (§9) The validated PF846-inspired library was screened to discover novel translation inhibitors. DEL beads were encapsulated in microfluidic droplets of WG IVTT and irradiated with UV in flow to liberate DEL members into the droplets. The photodosed droplets were incubated and sorted based on fluorescence.[25] PCSK9[1:33]-GFP was chosen as a proof-of-concept target, and PCSK9-FS[1:33]-GFP was used as a counter screen target to identify nonselective compounds. PC-HygB were mixed with DEL beads and screened in the microfluidic device for inhibitors of translation. […] Droplet generation, bead introduction, and library and control bead hit rate were uniform during the screen (Figure 3, bottom).
(§10) Hit collection DNA tags from the PCSK9[1:33]-GFP and PCSK9-FS[1:33]-GFP screens were sequenced to deduce the structures of molecules that inhibited PCSK9[1:33]- or PCSK9-FS[1:33]-GFP translation. Hit structure k class, the number of times a given hit structure is observed on distinct beads,[31] was summed across screens and visualized as a heat map (Figure 4A). […] The combined hit sets for the two templates contained 121 unique hits with k ≥ 17 across the two screening campaigns. The most frequently observed cycle 1 starter BBs were 1 and 2, which share an 8-methylisoquinoline moiety, but differ in the vector for cycle 2 carboxylic acid connection, and 3, which contains an N-methylazaindole moiety. The most frequently identified cycle 2 tails included carboxylic acids 4–7. […] Substituted pyrazole 6 and pyridyl-benzimidazole 7 also appeared frequently with the aforementioned starters. There were 5 hits that appeared with high k class in both PCSK9[1:33]-GFP and PCSK9[1:33]-FS-GFP screening campaigns.
(§11) 319 the droplet experiment to homogenize the bead suspension. Syringes were connected to
(§12) 320 fluidic inputs with microbore Tygon tubing (0.01” x 0.03” IC × OD). Droplet generation oil
(§13) 321 (OIL1) was 1% picosurf in HFE. Spacing (OIL2) and pinning (OIL3) oils were neat HFE.
(§14) 322 Assay reagents were driven by displacement syringe pumps (Legato 100, KD Scientific,
(§15) 323 Holliston, MA) through the circuit. OIL2 and OIL3 were initially flowed (22 µL/min and
(§16) 324 12 µL/min, respectively) and hit and waste shunt tubing were clamped to backfill the
(§17) 325 circuit. Once the incubator was filled with oil, the hit and waste tubing were unclamped
(§18) 326 and back shunts were clamped. AQ1, AQ2, and OIL1 flows were initiated (960 nL/min,
(§19) 327 640 nL/min, and 1200 nL/min, respectively) and held constant during the screen. Once
(§20) 328 droplet generation equilibrated (∼10 min), the main shunt was clamped and droplets
(§21) 329 started to fill the incubator. When droplets filled the incubator and entered the sorting
(§22) 330 region, data acquisition and screening was initiated.
(§23) 331 The custom confocal LIF detection setup and LabView code were previously described.S3
(§24) 332 Briefly, photon counting PMTs (H7828, Hamamatsu, Middlesex, NJ) were used to detect
(§25) 333 droplet fluorescence emission using a custom two-channel (520 and 570 nm) confocal mi-
(§26) 334 croscope with laser excitation (488 nm, 20 mW, OBIS-488 20LS, Coherent Inc., Santa Clara,
(§27) 335 CA). A data acquisition board (DAQ, NI, USB-6341, National Instruments) was used to
(§28) 336 digitize PMT signal, which was binned into counts, and in-house LabView code was used
(§29) 337 to control acquisition and execute droplet sorting decisions. Signal was smoothed in real-
(§30) 338 time using median-filter smoothing (width = 3). Droplets were identified by the 570 nm
(§31) 339 channel signal and the maximum signal in the 520 nm channel (max = countsn-1 when
(§32) 340 countsn <countsn-1) was set as the droplet peak value. A roaming sort threshold was
(§33) 342 the 520 nm channel. The threshold was calculated as µ - 5σ, where µ andσ were the mean
(§34) 343 and standard deviation of the previous 300 droplets’ fluorescence values, respectively. Hit
(§35) 344 droplets were not included in the calculation of droplet mean and standard deviation. A […]

[4] = tested on: PCSK9-FS[1:33]-GFP translation; assay: Microfluidic activity-based DEL counter screen in WG IVTT droplets, PCSK9-FS[1:33]-GFP, hit k class by sequencing; type: biochemical, wheat germ; details: number of times hit structure observed on distinct beads, summed across PCSK9-FS[1:33]-GFP screens; *** p < 0.001, NS not significant
Description: as §9, §10, §11, §12, §13, §14, §15, §16, §17, §18, §19, §20, §21, §22, §23, §24, §25, §26, §27, §28, §29, §30, §31, §32, §33, §34, §35

IC50 [2] | Compound | IC50 [1] | activity on PCSK9-FS[1:33]-GFP translation (in words) [1] | inhibition of PCSK9[1:33]-GFP translation (in words) [2] | k class PCSK9 [3] | k class PCSK9-FS [4]
6 ± 0.2 µM | Cc1cccc2ccnc(N(C(=O)[C@H]3CCCN(C(=O)c4ccc(-c5cnco5)cc4)C3)[C@@H]3CCCNC3)c12 [Compound 10, (S)-N-(8-methylisoquinolin-1-yl)-1-(4-(oxazol-5-yl)benzoyl)-N-((R)-piperidin-3-yl)piperidine-3-carboxamide] | > 300 µM | minimal activity | modestly inhibited | 34 | 3
19.1 ± 0.5 µM | Cc1c(C(=O)N2CCC(C(=O)N(c3nccc4cccc(C)c34)[C@@H]3CCCNC3)CC2)[nH]c2c1C(=O)CCC2 [Compound 11] | 31 ± 1 µM | similarly active on both templates | similarly active on both templates | 38 | 10
44 ± 4 µM | Cc1cccc2ccnc(N(C(=O)C3CCN(C(=O)C#CC4(O)CCOCC4)CC3)[C@@H]3CCCNC3)c12 [Compound 12] | 27 ± 2 µM | similarly active on both templates | similarly active on both templates | 31 | 3
11.2 ± 0.5 µM | Cc1cccc2ccnc(N(C(=O)[C@H]3CCCN(C(=O)c4ccc(N5CCCC5)nc4)C3)[C@@H]3CCCNC3)c12 [Compound 13] | > 300 µM | minimal activity | modestly inhibited | 39 | 4
11.4 ± 0.4 µM | Cc1cccc2ccnc(N(C(=O)C3CCN(C(=O)c4ccc5nc(-c6ccncc6)[nH]c5c4)CC3)[C@@H]3CCCNC3)c12 [Compound 14] | 7.7 ± 0.1 µM | similarly active on both templates | similarly active on both templates | 53 | 17
